Read-outs that look alike come from different tables or passages of the source.
What was measured:
Format in all cases: cell-based, human
Vγ9Vδ2 T cells = experiment: Survival of Vγ9Vδ2 T cells in HD-PBMC (Caspase3/7 and dead cell marker, flow cytometry); conditions: HD-PBMC, 48 h; for CC50: in presence of isotype control (hIgG1S 1 μg/mL)
Protocol: The effect of ICT01 on the survival of Vγ9Vδ2 T cells upon treatment with Bcl-2 family member inhibitors was assessed in Peripheral Blood Mononuclear Cells from Healthy Donors (HD-PBMC) using the apoptotic marker Caspase3/7 and a dead cell marker in flow cytometry analysis.
Peripheral Blood Mononuclear Cells (PBMC) were isolated by Ficoll density gradient centrifugation of peripheral blood (EDTA-buffy coats) from healthy donors (HD, n=4-6), cultured in PBMC medium (RPMI 1640 Medium supplemented with 10% Fetal Bovine Serum (FBS), 1% Penicillin/Streptomycin and 1 mM Sodium Pyruvate) and treated with ICT01 or its isotype control (hIgG1S) used at 1 μg/mL in the presence or absence of increasing concentrations of Venetoclax (0-0.1 μM), 5-Azacytidine (0-0.4 μM) or the combination, or ABT-737 (0-1.875 μM), Navitoclax (0-1.875 μM) or MIK665 (0-1.875 μM). Cells were harvested on day 2, centrifuged at 1800 rpm for 5 minutes and then incubated 10 minutes at room temperature (RT) with 25 μl of FcR blocking reagent (Miltenyi Biotec) before adding 25 μL of the following antibody mix prepared in PBS+2% FBS+2 mM EDTA (FACS buffer): anti-CD4-BUV395, CD56-BV421, Vd2-PE, CD3-PE-CF594 and CD8-A700 antibodies for the identification of immune subsets, anti-CD25-BV650 and CD69-APC antibodies were added to monitor activation status of Vγ9Vδ2 T cells, and a viability marker (LIVE/DEAD™ Fixable Dead Cell Stain) was added to distinguish live from dead cells. Cells were incubated 20 minutes at room temperature (RT) and washed 2 times with FACS buffer. A Caspase3/7 Green detection reagent (ThermoFisher) was added to determine apoptosis and cells were incubated for 30 minutes at RT before flow cytometry analysis.
In a similar experiment, freshly isolated PBMC were stimulated with ICT01 or its isotype control hIgG1S for 1 day prior to a 2 day-treatment with Venetoclax (FIG. 3a). The number of live Vγ9Vδ2 T cells was assessed by flow cytometry at the end of the incubation time.

KG1a AML cells = experiment: Killing of KG1a AML cells in co-culture with HD-PBMC (flow cytometry); conditions: for KG1a cell death / reduction of living KG1a cells as compared to control: alone or with ICT01 0.1 μg/mL, HD-PBMC ratio 5:1, 2 days
Protocol: A) Sensitivity of KG1a cell line to Venetoclax, 5-Azacytidine or the combination. […] N=2 experiments. B) Mean±SEM relative number of Live KG1a AML cells monitored by flow cytometry after 3 days of co-culture with HD-PBMC (E:T ratio 25:1) treated with ICT01 (black) or its isotype control (hIgG1S, light grey) at 0.1 or 1 μg/mL. N=6, each dot represents one healthy donor. C) Schematic representation of treatment schedule for killing of KG1a AML cells by HD-PBMC. D) Relative number of Live KG1a AML cells (Mean±SEM) (left) and Frequency of Live KG1a AML cell relative to no Venetoclax or 5-Azacytidine treatment (Mean±SEM) (right) after 3 days of co-culture with HD-PBMC in presence of ICT01 (black) or its isotype control (hIgG1S, light grey) and treatment with Venetoclax, 5-Azacytidine or the combination. N=6, each dot represents one healthy donor, * p<0.05, Wilcoxon test.
KG1a cells were co-cultured with HD-PBMC at ratio 5:1 in presence of m20.1 or isotype control (0.1 μg/mL). After 6 hrs, indicated concentrations of Venetoclax, 5-Azacytidine or the combination were added to the culture. Relative number of live KG1a was monitored after 48 hrs by flow cytometry. […] N=6, each dot represents one healthy donor, * p<0.05, ** p<0.01, *** p<0.001, **** p<0.0001, 2 way ANOVA.
(§1) KG1a or MOLM14 AML cell lines were co-cultured with HD-PBMC at ratio 5:1 in presence of ICT01 or isotype control (0.1 μg/mL). After 6 hrs, indicated concentrations of ABT-737, Navitoclax or MIK665 were added to the culture. A) Relative numbers of live KG1a cells (Mean±SEM) after 2 days of co-culture with HD-PBMC in presence of ICT01 (black) or its isotype control hIgG1S (light grey) and treatment with indicated concentration of ABT-737. B) Relative numbers of live KG1a cells (Mean±SEM) after 2 days of co-culture with HD-PBMC in presence of ICT01 (black) or its isotype control hIgG1S (light grey) and treatment with indicated concentration of Navitoclax. C) Relative numbers of live MOLM14 cells (Mean±SEM) after 2 days of co-culture with HD-PBMC in presence of ICT01 (black) or its isotype control hIgG1S (light grey) and treatment with indicated concentration of MIK665. N=6 HD, each dot represents one healthy donor, * p<0.05, 2 way ANOVA.
The effect of Venetoclax and 5-Azacytidine on anti-BTN3A antibodies-induced killing of AML cell lines by Vγ9Vδ2 T cells was assessed by measuring the relative number of surviving target cells in a HD-PBMC-AML cell co-culture using flow cytometry.
Then, KG1a AML cells were stained with CellTrace CFSE Proliferation dye (ThermoFisher) to allow for specific detection by flow cytometry, counted, put into a co-culture with thawed HD-PBMC and treated with the anti-BTN3A mAbs ICT01 or m20.1 or their respective isotype controls (hIgG1S or mIgG1) in PBMC medium (RPMI 1640 Medium supplemented with 10% Fetal Bovine Serum (FBS) and 1 mM Sodium Pyruvate). On day one of culture, increasing concentrations of Venetoclax (0-0.4 μM), 5-Azacytidine (0-0.4 μM) or the combination were added. Cells were harvested on day 3 of co-culture, centrifuged at 1800 rpm for 5 minutes and then incubated 10 minutes at room temperature (RT) with 25 μl of FcR blocking reagent (Miltenyi Biotec) before adding 25 μL of the following antibody mix prepared in PBS+2% FBS+2 mM EDTA (FACS buffer): anti-CD56-BV421, CD19-BV421, CD14-BV785, Tyb-PE and CD3-AF700 antibodies for the identification of immune subsets, and a viability marker (LIVE/DEAD™ Fixable Dead Cell Stain) was added to distinguish live and dead cells. Cells were incubated 20 minutes at room temperature, washed once in FACS buffer and once in AnnexinV staining buffer. An AnnexinV-APC probe mixed with CountBright Absolute Counting Beads (Invitrogen) was added to determine apoptosis and relative cell numbers, followed by 15 minutes incubation at RT before flow cytometry analysis. […]

MOLM14 cells = experiment: Killing of MOLM14 AML cells in co-culture with HD-PBMC (flow cytometry); conditions: alone or with ICT01 0.1 μg/mL, HD-PBMC ratio 5:1, 2 days
Protocol: as §1
The effect of the three Bcl-2 family member inhibitors ABT-737, Navitoclax and MIK665, on ICT01-induced killing of AML cell lines by Vγ9Vδ2 T cells was assessed by measuring the relative number of surviving target cells in a HD-PBMC-AML cells co-culture using flow cytometry.
For assays using ABT-737 or Navitoclax, KG1a cells were used. […] Therefore, MOLM14 cells, which express MCL-1, were used in killing assays assessing the activity of ICT01 combined with MIK665.

[1] = in presence of ICT01 (1 μg/mL), read-out: EC50 of Vγ9Vδ2 T cell death
[2] = Homo sapiens, T-cell, read-out: EC50 of Vγ9Vδ2 T cell death
[3] = Homo sapiens, T-cell, inhibitor alone (FIG. 2a), read-out: EC50 of apoptosis and death of Vγ9Vδ2 T cells
[4] = Bcl-2 family inhibitor at 0.25 μM
[5] = Bcl-2 family inhibitor at 0.5 μM

Row | Compound | EC50 (Vγ9Vδ2 T cells; [1]) [nM] | CC50 (Vγ9Vδ2 T cells; [2]) [nM] | EC50 (Vγ9Vδ2 T cells; [3]) [nM] | KG1a cell death / reduction of living KG1a cells as compared to control (KG1a AML cells; [4]) | KG1a cell death / reduction of living KG1a cells as compared to control (KG1a AML cells; [5]) | sensitivity of KG1a to MIK665 treatment (KG1a AML cells; cell line does not express MCL-1) | cell death / reduction of living MOLM14 cells as compared to control (MOLM14 cells; MIK665 at 0.025 μM) | cell death / reduction of living MOLM14 cells as compared to control (MOLM14 cells; MIK665 at 0.05 μM)
1 | CN(C)CC[C@H](CSc1ccccc1)Nc1ccc(S(=O)(=O)NC(=O)c2ccc(N3CCN(Cc4ccccc4-c4ccc(Cl)cc4)CC3)cc2)cc1[N+](=O)[O-] [ABT-737] | 460 | 230 | 240 | ~ 34% | ~ 54% | – | – | –
2 | CC1(C)CCC(c2ccc(Cl)cc2)=C(CN2CCN(c3ccc(C(=O)NS(=O)(=O)c4ccc(N[C@H](CCN5CCOCC5)CSc5ccccc5)c(S(=O)(=O)C(F)(F)F)c4)cc3)CC2)C1 [Navitoclax, 4-[4-[[2-(4-chlorophenyl)-5,5-dimethylcyclohexen-1-yl]methyl]piperazin-1-yl]-N-[4-[[(2R)-4-morpholin-4-yl-1-phenylsulfanylbutan-2-yl]amino]-3-(trifluoromethylsulfonyl)phenyl]sulfonylbenzamide] | 200 | 160 | 160 | ~ 51% | ~ 71% | – | – | –
3 | COc1ccccc1-c1nccc(COc2ccccc2C[C@@H](Oc2ncnc3sc(-c4ccc(F)cc4)c(-c4ccc(OCCN5CCN(C)CC5)c(Cl)c4C)c23)C(=O)O)n1 [MIK665, (R)-2-((5-(3-chloro-2-methyl-4-(2-(4-methylpiperazin-1-yl)ethoxy)phenyl)-6-(4-fluorophenyl)thieno[2,3-d]pyrimidin-4-yl)oxy)-3-(2-((2-(2-methoxyphenyl)pyrimidin-4-yl)methoxy)phenyl)propanoic acid] | 780 | 240 | 240 | – | – | completely resistant | ~ 52% | ~ 72%

— patent US20260256909A1, “COMBINATION OF A BTN3A ACTIVATING ANTIBODY, A BCL2 INHIBITOR AND HYPOMETHYLATING AGENT FOR USE IN TREATING CANCER” (Imcheck Therapeutics, priority 2022, published 2026)
